# According to patent US10226455B2 (priority 2014, dated 2019):
# Like-named read-outs stand apart in the source and are kept apart here.
# Experiments:
# [1] = tested on: multidrug resistant Haemonchus contortus isolate UGA2004 L3 stage larvae; details: for inhibition of larval motility compared with verapamil: with IVR, 10 or 20 uM RTI-79, 20 uM RTI-176, 10 uM verapamil
# Procedure: Each well contained a 300 uL solution containing approximately 75 L3 stage larvae, IVR, and pgp inhibitor or control. IVR was provided in serially diluted concentrations of 50, 25, 12.5, 6.25, 3.125, 1.56, 0.78 or 0.39 uM, to permit evaluation of the dose response to IVR in the presence of the pgp inhibitors. Inhibition of larval motility was determined by failure of the incubated larvea to move when stimulated by light exposure after incubation.
# [2] = tested on: UGA2004 H. contortus isolate eggs; assay: Larval development assay, sensitization to thiabendazole; parameters: species or system Haemonchus contortus
# Procedure: TBZ was provided in a range of concentrations to permit evaluation of the dose response to TBZ in the presence of the pgp inhibitors. After incubation of the eggs for seven days, the number of stage 3 (“L3”) larvae that developed with each treatment was counted.
# [3] = tested on: P-gp; details: previously demonstrated; cited from earlier work
# [4] = Time to maximal plasma concentration / tissue absorption after administration
# Excerpt: In certain embodiments, the rifamycin, rifamycin derivative, rifampicin, rifampicin derivative, or pharmaceutically acceptable salt, hydrate, or prodrug thereof, or combination thereof, can be administered in a method that matches the pharmokinetics of the composition to that of the antiparasitic drug also administered to the recipient.
# [5] = tested on: P. Falciparum; assay: In vitro inhibition of P. falciparum variants, DAPI fluorescence imaging assay in erythrocyte cultures; assay type: cell-based
# Excerpt: Sensitivity of the P. Falciparum variants to (i.e. inhibition of the parasites by) RTI-79chloroquine, or rifamycin was quantitated via assay as previously described. Duffy, S. and V. M. Avery, Development and optimization of a novel 384-well anti-malarial imaging assay validated for high-throughput screening. Am J Trop Med Hyg, 2012. 86(1): p. 84-92. Inhibition of P. Falciparum with various concentrations of the inhibitors was quantified by measuring DAPI fluorescence of parasite DNA in erythrocyte cultures.
# Decreased DAPI staining quantified as relative light units (“RLU”), is observed with parasite inhibition in the assays.
# [6] = tested on: P. Falciparum; details: read-out: previously-reported IC50 of chloroquine, cited from earlier work
# [7] = tested on: P. Falciparum; assay: Chloroquine sensitization in chloroquine-resistant P. Falciparum (survival of variants); assay type: cell-based
# Excerpt: Quinine and quinine derivatives including chloroquine inhibit the Plasmodium parasites, including P. Falciparum, by accumulating in food vacuoles and causing accumulation of cytotoxic heme, thereby poisoning the parasite.
# [8] = cited from earlier work
molecule,measurement,setting,value
"11-deoxy-11-amino-4-deoxy-3,4[2-spiro-[1-(isobutyloxycarbonyl)-piperidin-4-yl]]-(1H)-imidazo-(2,5-dihydro)rifamycin S [RTI-176]",shift of IVR dose response curve,"[1]; relative to the 1% DMSO control, FIG. 3A",shifted the IVR dose response curve to the left
same,inhibition of larval motility compared with verapamil,[1],more potent inhibition of larval motility
same,shift of TBZ dose response curve,"[2]; relative to both verapamil and the 1% DMSO control, FIG. 3B",shifted the TBZ dose response curve to the left
same,shift of the IC50 of TBZ,"[2]; seven days incubation, relative to control and verapamil",3.79 fold
"4-deoxy-3,4[2-spiro-[1-(isobutyloxycarbonyl)-piperidin-4-yl]]-(1H)-imidazo-(2,5-dihydro)rifamycin S [RTI-79]",inhibition of larval motility compared with verapamil,[1],more potent inhibition of larval motility
same,drug efflux from cells,[3],prevent drug efflux from cells
same,time to maximal plasma concentration,[4],≤ 3 h
same,"inhibition of strains (DAPI staining, RLU)","[5]; all strains, FIGS. 1A-1C",Dose-dependent inhibition of all strains
same,IC50,"[5]; all variants (3D7, Dd2, K1; chloroquine-sensitive and -resistant), read-out: observed IC50",~625 nM
CCN(CC)CCCC(C)Nc1ccnc2cc(Cl)ccc12 (centres unmarked) [chloroquine],IC50,[6]; chloroquine-resistant Dd2 variant,100 nM
same,IC50,[6]; chloroquine-resistant K1 variant,255 nM
same,IC50,[6]; chloroquine-sensitive 3D7 variant,~10 nM
same,parasite survival,"[7]; 3D7 variant, chloroquine at or greater than IC50",death of the parasite
same,parasite survival,"[7]; chloroquine-resistant variants, chloroquine alone at or below the 3D7 IC50",survive
CO[C@H]1/C=C/O[C@@]2(C)Oc3c(C)c(O)c4c(c3C2=O)C2=NC3(CCN(CC(C)C)CC3)NC2=C(NC(=O)/C(C)=C\C=C\[C@H](C)[C@H](O)[C@@H](C)[C@@H](O)[C@@H](C)[C@H](OC(C)=O)[C@@H]1C)C4=O [rifabutin],initial half-life of plasma elimination,[8]; biphasic elimination,approximately 4 hours
same,mean (±SD) peak plasma concentration (Cmax),"[8]; in vivo, po, 300 mg",375 (±267) ng/mL
same,"peak plasma concentration (Cmax), range","[8]; in vivo, po, 300 mg",141 to 1033 ng/mL
